Results on 3 molecules are retold here after ChEMBL document CHEMBL3774385, “Small molecule glycoconjugates with anticancer activity” (Eur J Med Chem, 2016).

Activity calls are given as the source filed them. The rule behind the calls is not given here.

System in one experiment: not listed separately
Nature of the experiment: Binding affinity to Cu2+ assessed as compound-metal complex formation at compound to metal ratio of 1:0, 1:1, 2:1, 3:1, 4:1 and 5:1 after 30 mins by UV-visible spectrophotometry.
Conditions: not given
As to `Cc1ccc2ccc(C(=O)N[C@@H]3O[C@H](COCc4ccccc4)[C@H](OCc4ccccc4)[C@H](OCc4ccccc4)[C@H]3OCc3ccccc3)c(O)c2n1`, the result was Active.

`CC(=O)OC[C@H]1O[C@@H](NC(=O)c2ccc3ccc(C)nc3c2O)[C@H](OC(C)=O)[C@@H](OC(C)=O)[C@@H]1OC(C)=O`: the outcome was Active.

`CC(=O)OC[C@H]1O[C@@H](Sc2ccc(NC(=O)c3ccc4ccc(C)nc4c3O)cn2)[C@H](OC(C)=O)[C@@H](OC(C)=O)[C@H]1OC(C)=O`: the result was Active.

System in another experiment: not listed separately
The experiment in a line: Binding affinity to Zn2+ assessed as compound-metal complex formation at compound to metal ratio of 1:0, 1:1, 2:1, 3:1, 4:1 and 5:1 after 30 mins by UV-visible spectrophotometry.
Conditions: not given
Take `Cc1ccc2ccc(C(=O)N[C@@H]3O[C@H](COCc4ccccc4)[C@H](OCc4ccccc4)[C@H](OCc4ccccc4)[C@H]3OCc3ccccc3)c(O)c2n1`: the outcome was Active.

For `CC(=O)OC[C@H]1O[C@@H](NC(=O)c2ccc3ccc(C)nc3c2O)[C@H](OC(C)=O)[C@@H](OC(C)=O)[C@@H]1OC(C)=O`, the result was Active.

Regarding `CC(=O)OC[C@H]1O[C@@H](Sc2ccc(NC(=O)c3ccc4ccc(C)nc4c3O)cn2)[C@H](OC(C)=O)[C@@H](OC(C)=O)[C@H]1OC(C)=O`, the result was Active.

The next experiment relates to HCT-116. The experiment in a line: Induction of apoptosis in p53 expressing human HCT116 cells assessed as caspase-3/7 activation at IC50 after 30 to 48 hrs by luminescence assay. The experiment is classed as functional, cell-based.
Conditions: not given
As to `Cc1ccc2ccc(C(=O)N[C@@H]3O[C@H](COCc4ccccc4)[C@H](OCc4ccccc4)[C@H](OCc4ccccc4)[C@H]3OCc3ccccc3)c(O)c2n1`, the result was Active.

Consider `CC(=O)OC[C@H]1O[C@@H](NC(=O)c2ccc3ccc(C)nc3c2O)[C@H](OC(C)=O)[C@@H](OC(C)=O)[C@@H]1OC(C)=O`, for which the outcome was Active.

For the molecule `CC(=O)OC[C@H]1O[C@@H](Sc2ccc(NC(=O)c3ccc4ccc(C)nc4c3O)cn2)[C@H](OC(C)=O)[C@@H](OC(C)=O)[C@H]1OC(C)=O`, the outcome was inactive.

Another experiment has as its system HCT-116. The experiment in a line: Induction of intracellular reactive oxygen species generation in p53 expressing human HCT116 cells at IC50 after 6 hrs by fluorescence-based plate reader analysis.
Conditions: not given
The experiment is classed as functional, cell-based.
With `CC(=O)OC[C@H]1O[C@@H](NC(=O)c2ccc3ccc(C)nc3c2O)[C@H](OC(C)=O)[C@@H](OC(C)=O)[C@@H]1OC(C)=O`, the outcome was Active.

Another experiment has as its system Calf thymus DNA. The experiment in a line: Binding affinity to calf thymus DNA assessed as hypochromism at 3 to 25 uM after 1.5 hrs by UV-visible spectrophotometry. The experiment is classed as nucleic-acid assay. The note with it: Bos taurus.
`Cc1ccc2ccc(C(=O)N[C@@H]3O[C@H](COCc4ccccc4)[C@H](OCc4ccccc4)[C@H](OCc4ccccc4)[C@H]3OCc3ccccc3)c(O)c2n1`: the Activity was found to be 9%.

`CC(=O)OC[C@H]1O[C@@H](NC(=O)c2ccc3ccc(C)nc3c2O)[C@H](OC(C)=O)[C@@H](OC(C)=O)[C@@H]1OC(C)=O`: the Activity is 16.2%.

As to `CC(=O)OC[C@H]1O[C@@H](Sc2ccc(NC(=O)c3ccc4ccc(C)nc4c3O)cn2)[C@H](OC(C)=O)[C@@H](OC(C)=O)[C@H]1OC(C)=O`, the Activity turned out to be 26.1%.

The subject of a further experiment is HCT-116. The experiment in a line: Induction of apoptosis in p53 expressing human HCT116 cells assessed as early apoptotic cells at IC50 after 48 hrs by acridine orange/ethidium bromide staining-based epifluorescence microscopy. The experiment is classed as functional, cell-based.
Conditions: not given
Take `Cc1ccc2ccc(C(=O)N[C@@H]3O[C@H](COCc4ccccc4)[C@H](OCc4ccccc4)[C@H](OCc4ccccc4)[C@H]3OCc3ccccc3)c(O)c2n1`: the outcome was Active.

For the molecule `CC(=O)OC[C@H]1O[C@@H](NC(=O)c2ccc3ccc(C)nc3c2O)[C@H](OC(C)=O)[C@@H](OC(C)=O)[C@@H]1OC(C)=O`, the result was Active.

For the molecule `CC(=O)OC[C@H]1O[C@@H](Sc2ccc(NC(=O)c3ccc4ccc(C)nc4c3O)cn2)[C@H](OC(C)=O)[C@@H](OC(C)=O)[C@H]1OC(C)=O`, the outcome was Active.

For a further experiment, the system named is HCT-116. The experiment in a line: Induction of apoptosis in p53 expressing human HCT116 cells assessed as late apoptotic cells at IC50 after 48 hrs by acridine orange/ethidium bromide staining-based epifluorescence microscopy. The experiment is classed as functional, cell-based.
Conditions: not given
On to `Cc1ccc2ccc(C(=O)N[C@@H]3O[C@H](COCc4ccccc4)[C@H](OCc4ccccc4)[C@H](OCc4ccccc4)[C@H]3OCc3ccccc3)c(O)c2n1`, for which the result was Active.

For `CC(=O)OC[C@H]1O[C@@H](NC(=O)c2ccc3ccc(C)nc3c2O)[C@H](OC(C)=O)[C@@H](OC(C)=O)[C@@H]1OC(C)=O`, the result was Active.

As for `CC(=O)OC[C@H]1O[C@@H](Sc2ccc(NC(=O)c3ccc4ccc(C)nc4c3O)cn2)[C@H](OC(C)=O)[C@@H](OC(C)=O)[C@H]1OC(C)=O`, the outcome was Active.

For another experiment, the system named is HCT-116. The experiment in a line: Antiproliferative activity against p53 expressing human HCT116 cells at IC50 after 96 hrs by MTS assay in presence of 50 uM of ZnCl2.
Conditions: not given
Format: functional, cell-based.
Consider `CC(=O)OC[C@H]1O[C@@H](NC(=O)c2ccc3ccc(C)nc3c2O)[C@H](OC(C)=O)[C@@H](OC(C)=O)[C@@H]1OC(C)=O`, for which the outcome was inactive.

System in a further experiment: not listed separately
The experiment in a line: Antiproliferative activity against p53 deficient human HCT116 cells after 96 hrs by MTS assay. Format: functional, cell-based. The conditions noted are these: HCT-116, 96 h. (Tetrazolium assays rely on reduction of a dye to a coloured formazan, in cell work by metabolically active cells.)
`Cc1ccc2ccc(C(=O)N[C@@H]3O[C@H](COCc4ccccc4)[C@H](OCc4ccccc4)[C@H](OCc4ccccc4)[C@H]3OCc3ccccc3)c(O)c2n1` came in with an IC50 of 11.7 µM.

In the case of `CC(=O)OC[C@H]1O[C@@H](NC(=O)c2ccc3ccc(C)nc3c2O)[C@H](OC(C)=O)[C@@H](OC(C)=O)[C@@H]1OC(C)=O`, inhibition was half-maximal at 15.1 µM (IC50).

On to `CC(=O)OC[C@H]1O[C@@H](Sc2ccc(NC(=O)c3ccc4ccc(C)nc4c3O)cn2)[C@H](OC(C)=O)[C@@H](OC(C)=O)[C@H]1OC(C)=O`, for which 7.05 µM corresponded to half-maximal inhibition (IC50).

System in another experiment: not listed separately
The experiment in a line: Antiproliferative activity against p53 expressing human HCT116 cells at IC50 after 96 hrs by MTS assay in presence of 20 uM CuCl2. Format: functional, HCT-116.
Conditions: not given
`CC(=O)OC[C@H]1O[C@@H](NC(=O)c2ccc3ccc(C)nc3c2O)[C@H](OC(C)=O)[C@@H](OC(C)=O)[C@@H]1OC(C)=O`: the Activity was 50%.

The next experiment concerns NHDF. The experiment in a line: Cytotoxicity against human NHDF cells after 96 hrs by MTS assay.
Conditions: not given
The experiment is classed as cell-based.
`Cc1ccc2ccc(C(=O)N[C@@H]3O[C@H](COCc4ccccc4)[C@H](OCc4ccccc4)[C@H](OCc4ccccc4)[C@H]3OCc3ccccc3)c(O)c2n1` displayed an IC50 of 18.6 µM.

The molecule `CC(=O)OC[C@H]1O[C@@H](NC(=O)c2ccc3ccc(C)nc3c2O)[C@H](OC(C)=O)[C@@H](OC(C)=O)[C@@H]1OC(C)=O` registered a half-maximal inhibitory concentration (IC50) of 23.6 µM.

With `CC(=O)OC[C@H]1O[C@@H](Sc2ccc(NC(=O)c3ccc4ccc(C)nc4c3O)cn2)[C@H](OC(C)=O)[C@@H](OC(C)=O)[C@H]1OC(C)=O`, the IC50 is 9.32 µM. This IC50 lies about 2.5-fold lower than the previous one.

For the next experiment, the system named is HCT-116. The experiment in a line: Induction of apoptosis in p53 deficient human HCT116 cells assessed as caspase-3/7 activation at IC50 after 30 to 48 hrs by luminescence assay. The experiment is classed as functional, cell-based.
Conditions: not given
For `Cc1ccc2ccc(C(=O)N[C@@H]3O[C@H](COCc4ccccc4)[C@H](OCc4ccccc4)[C@H](OCc4ccccc4)[C@H]3OCc3ccccc3)c(O)c2n1`, the outcome was Active.

In the case of `CC(=O)OC[C@H]1O[C@@H](Sc2ccc(NC(=O)c3ccc4ccc(C)nc4c3O)cn2)[C@H](OC(C)=O)[C@@H](OC(C)=O)[C@H]1OC(C)=O`, the outcome was inactive.

The next experiment concerns HCT-116. The experiment in a line: Induction of reactive oxygen species generation in p53 expressing human HCT116 cells at 2 times IC50 for 24 hrs by inverted fluorescent microscopy. Format: functional, cell-based.
Conditions: not given
`Cc1ccc2ccc(C(=O)N[C@@H]3O[C@H](COCc4ccccc4)[C@H](OCc4ccccc4)[C@H](OCc4ccccc4)[C@H]3OCc3ccccc3)c(O)c2n1`: the outcome was Active.

Take `CC(=O)OC[C@H]1O[C@@H](NC(=O)c2ccc3ccc(C)nc3c2O)[C@H](OC(C)=O)[C@@H](OC(C)=O)[C@@H]1OC(C)=O`: the result was Active.

As to `CC(=O)OC[C@H]1O[C@@H](Sc2ccc(NC(=O)c3ccc4ccc(C)nc4c3O)cn2)[C@H](OC(C)=O)[C@@H](OC(C)=O)[C@H]1OC(C)=O`, the result was Active.

System in another experiment: not listed separately
Nature of the experiment: Antiproliferative activity against p53 expressing human HCT116 cells after 96 hrs by MTS assay. The note with it: HCT-116, 96 h. The experiment is classed as functional, cell-based.
Molecule `Cc1ccc2ccc(C(=O)N[C@@H]3O[C@H](COCc4ccccc4)[C@H](OCc4ccccc4)[C@H](OCc4ccccc4)[C@H]3OCc3ccccc3)c(O)c2n1` registered an IC50 of 11.6 µM.

The molecule `CC(=O)OC[C@H]1O[C@@H](NC(=O)c2ccc3ccc(C)nc3c2O)[C@H](OC(C)=O)[C@@H](OC(C)=O)[C@@H]1OC(C)=O` registered an IC50 of 13.6 µM.

On to `CC(=O)OC[C@H]1O[C@@H](Sc2ccc(NC(=O)c3ccc4ccc(C)nc4c3O)cn2)[C@H](OC(C)=O)[C@@H](OC(C)=O)[C@H]1OC(C)=O`, for which 7.86 µM corresponded to half-maximal inhibition (IC50).

The test system of the next experiment is HCT-116. The experiment in a line: Antiproliferative activity against p53 expressing human HCT116 cells at IC50 after 3 to 96 hrs by MTS assay in presence of 10 to 50 uM glucose.
Conditions: not given
Format: functional, cell-based.
For `Cc1ccc2ccc(C(=O)N[C@@H]3O[C@H](COCc4ccccc4)[C@H](OCc4ccccc4)[C@H](OCc4ccccc4)[C@H]3OCc3ccccc3)c(O)c2n1`, the result was inactive.

Take `CC(=O)OC[C@H]1O[C@@H](Sc2ccc(NC(=O)c3ccc4ccc(C)nc4c3O)cn2)[C@H](OC(C)=O)[C@@H](OC(C)=O)[C@H]1OC(C)=O`: the outcome was inactive.

For a further experiment, the system named is HCT-116. Nature of the experiment: Decrease in GSH level in p53 expressing human HCT116 cells at IC50 after 12 hrs by luminescence analysis. The experiment is classed as functional, cell-based.
Conditions: not given
`Cc1ccc2ccc(C(=O)N[C@@H]3O[C@H](COCc4ccccc4)[C@H](OCc4ccccc4)[C@H](OCc4ccccc4)[C@H]3OCc3ccccc3)c(O)c2n1`: the outcome was Active.

For `CC(=O)OC[C@H]1O[C@@H](NC(=O)c2ccc3ccc(C)nc3c2O)[C@H](OC(C)=O)[C@@H](OC(C)=O)[C@@H]1OC(C)=O`, the outcome was Active.

The next experiment deals with HCT-116. The experiment in a line: Induction of intracellular reactive oxygen species generation in p53 expressing human HCT116 cells at IC50 after 12 hrs by fluorescence-based plate reader analysis. The experiment is classed as functional, cell-based.
Conditions: not given
As to `Cc1ccc2ccc(C(=O)N[C@@H]3O[C@H](COCc4ccccc4)[C@H](OCc4ccccc4)[C@H](OCc4ccccc4)[C@H]3OCc3ccccc3)c(O)c2n1`, the result was Active.

The term IC50 denotes the midpoint of a concentration-inhibition curve. Low readings indicate inhibition by little substance, high ones a need for much substance.
